Assay results reported in ChEMBL document CHEMBL3393054, “Development of 2-aminooxazoline 3-azaxanthenes as orally efficacious β-secretase inhibitors for the potential treatment of Alzheimer's disease” (Bioorg Med Chem Lett, 2015).

Experiments:
Beta-secretase 1 [1] = target: T1, Beta-secretase 1 (Homo sapiens, UniProt P56817)
Cathepsin D = Cathepsin D (Homo sapiens, UniProt P07339)
Rattus norvegicus [2] = species: Rattus norvegicus; settings: dose 10 mg/kg; route oral
Rattus norvegicus [3] = species: Rattus norvegicus; settings: dose 10 mg/kg; route oral; remark: listed apart in the source
Beta-secretase 1 [4] = target: T1, Beta-secretase 1; remark: listed apart in the source
Rattus norvegicus [5] = species: Rattus norvegicus; assay: animal or person; settings: Sprague-Dawley, Cerebrospinal fluid, po, 4 h, read-out: INH

T1 sequence (P56817 whole entry): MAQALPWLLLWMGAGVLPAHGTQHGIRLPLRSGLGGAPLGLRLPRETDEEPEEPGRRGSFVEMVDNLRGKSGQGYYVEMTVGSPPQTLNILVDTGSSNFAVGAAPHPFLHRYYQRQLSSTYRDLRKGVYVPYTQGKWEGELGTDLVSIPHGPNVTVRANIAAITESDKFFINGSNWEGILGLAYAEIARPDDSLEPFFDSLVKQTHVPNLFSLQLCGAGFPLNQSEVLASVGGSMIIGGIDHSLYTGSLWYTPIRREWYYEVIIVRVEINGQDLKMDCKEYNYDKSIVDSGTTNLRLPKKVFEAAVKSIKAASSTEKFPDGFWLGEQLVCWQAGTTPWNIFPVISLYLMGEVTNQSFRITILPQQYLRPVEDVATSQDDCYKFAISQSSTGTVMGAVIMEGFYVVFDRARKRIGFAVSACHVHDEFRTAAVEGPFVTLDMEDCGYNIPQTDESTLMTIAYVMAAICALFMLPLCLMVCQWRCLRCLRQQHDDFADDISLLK
Cathepsin D, sequence (P07339 65-162 limits assumed): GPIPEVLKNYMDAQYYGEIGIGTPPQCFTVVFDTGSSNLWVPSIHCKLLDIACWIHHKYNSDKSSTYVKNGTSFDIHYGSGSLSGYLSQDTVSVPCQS
Cathepsin D, sequence (P07339 169-412 limits assumed): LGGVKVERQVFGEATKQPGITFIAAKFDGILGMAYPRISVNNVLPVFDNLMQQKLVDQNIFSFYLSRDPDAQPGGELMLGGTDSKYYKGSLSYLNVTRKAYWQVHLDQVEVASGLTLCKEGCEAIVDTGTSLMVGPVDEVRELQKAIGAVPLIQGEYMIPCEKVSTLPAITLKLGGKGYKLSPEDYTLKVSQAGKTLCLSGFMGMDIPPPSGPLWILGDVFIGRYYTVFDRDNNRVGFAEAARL

IC50 (Beta-secretase 1 [1]) [nM]	IC50 (Cathepsin D) [nM]	IC50 (Beta-secretase 1 [4]) [nM]	Structure (SMILES)	fEC50 (Rattus norvegicus [2]) [nM]	fEC50 (Rattus norvegicus [3]) [nM]	inhibition in vivo at 10 mg/kg (Rattus norvegicus [5]) [%]
4.2	640	0.7	NC1=N[C@@]2(CO1)c1cc(-c3cccnc3F)ccc1Oc1cnc(C3=CCOCC3)cc12	60	27	–
7.4	710	0.9	CC1(C)C=C(c2cc3c(cn2)Oc2ccc(-c4cccnc4F)cc2[C@@]32COC(N)=N2)CCO1	57	34	76
7.9	1080	0.5	NC1=N[C@@]2(CO1)c1cc(-c3cccnc3F)ccc1Oc1cnc(C3=CCCOC3)cc12	31	16	–
49.5	3390	7.1	NC1=N[C@@]2(CO1)c1cc(-c3cccnc3F)ccc1Oc1cnc(C3CCOCC3)cc12	659	339	–
123	5800	11.3	NC1=N[C@@]2(CO1)c1cc(-c3cccnc3F)ccc1Oc1cnc(C3CCCOC3)cc12 (some centres undefined)	–	–	–
–	11600	–	NC1=N[C@@]2(CO1)c1cc(-c3cccnc3F)ccc1Oc1cnc([C@@H]3CCCCO3)cc12	–	–	–
–	1040	–	NC1=N[C@@]2(CO1)c1cc(-c3cccnc3F)ccc1Oc1cnc([C@H]3CCCCO3)cc12	–	–	–
22	530	4	CC1(C)CN(c2cc3c(cn2)Oc2ccc(-c4cccnc4F)cc2[C@@]32COC(N)=N2)CCO1	–	–	–
–	2220	–	NC1=N[C@@]2(CO1)c1cc(-c3cccnc3F)ccc1Oc1cnc(N3CC[C@H](F)C3)cc12	–	–	–
–	680	–	NC1=N[C@@]2(CO1)c1cc(-c3cccnc3F)ccc1Oc1cnc(N3CC[C@@H](F)C3)cc12	–	–	–
25.3	650	1.4	NC1=N[C@@]2(CO1)c1cc(-c3cccnc3F)ccc1Oc1cnc(-c3ccccc3)cc12	–	–	–
26.6	4100	3.8	NC1=N[C@@]2(CO1)c1cc(-c3cccnc3F)ccc1Oc1cnc(-c3ccccn3)cc12	–	–	–
16	3190	2.5	NC1=N[C@@]2(CO1)c1cc(-c3cccnc3F)ccc1Oc1cnc(-c3ccncc3)cc12	745	365	56
15	3870	2.4	Cc1cc(-c2cc3c(cn2)Oc2ccc(-c4cccnc4F)cc2[C@@]32COC(N)=N2)ccn1	62	30	60
18.5	–	–	NC1=N[C@]2(CO1)c1cc(C3=CCOCC3)ccc1Oc1ccc(-c3cccnc3F)cc12	–	–	–

Structure (SMILES)	IC50 (Beta-secretase 1 [1]) [nM]	IC50 (Cathepsin D) [nM]	IC50 (Beta-secretase 1 [4]) [nM]	fEC50 (Rattus norvegicus [2]) [nM]	fEC50 (Rattus norvegicus [3]) [nM]	inhibition in vivo at 10 mg/kg (Rattus norvegicus [5]) [%]
NC1=N[C@@]2(CO1)c1cc(-c3cccnc3F)ccc1Oc1cnc(N3CCOCC3)cc12	20.5	600	–	–	–	–
NC1=N[C@@]2(CO1)c1cc(-c3cccnc3F)ccc1Oc1cnc(N3CCC(F)(F)CC3)cc12	8.7	140	–	54	–	–
NC1=N[C@@]2(CO1)c1cc(-c3cccnc3F)ccc1Oc1cnc(N3CCC(F)(F)C3)cc12	4.1	440	–	38	32	–
